Results from PMC10759609, “A novel PDPN antagonist peptide CY12-RP2 inhibits melanoma growth via Wnt/β-catenin and modulates the immune cells” (Journal of Experimental & Clinical Cancer Research : CR, 2024).

Tests used:
[1] = system: melanoma; settings: in vitro and in vivo; cited from earlier work
Source text: Therapeutic peptides are a novel and promising type of anti-cancer drug, due to several important advantages over proteins or antibodies: they are molecularly small, easy to synthesize, and capable of penetrating cell membranes; they also have high biological activity, affinity, chemical diversity, and specificity. Phage display technology is a high-throughput screening technique that greatly amplifies the application of directional evolution techniques for antibody and peptide modification screening, and first described in 1985 by Smith. Phage display inserts th ...

[2] = system: Wnt/β-catenin signaling pathway; assay: Western blot, EMT and Wnt/β-catenin pathway, melanoma cells; type: cell-based; settings: combined with CY12-RP2; SKL2001 50 μM; Western blot
Description: (§1) Melanoma cells were cultured in a 60 mm dish with a complete medium and various peptide concentrations (0 μM, 5 μM, 25 μM). Protein was extracted after cells were cultured or treated for 48 h using protein lysis buffer, separated using a 10% or 15% Bis–Tris PAGE gel (Epizyme Biomedical Technology, Shanghai, China), and transferred onto a PVDF membrane (Thermo Fisher Scientific) according to standard techniques. The Western blots were imaged using Bio-rad Chemidoc MP and quantified using ImageJ software (NIH).
Fig. S4: The inhibition of cells metastasis and invasion by CY12-RP2 can be […]
(A, B) The inhibition of CY12-RP2 on the migration capacity of melanoma cell lines was reversed by SKL2001 (A). Statistical analysis was performed to determine the migrated distance (B). The power field scale bar, 100 μm. (C, D) Effect of CY12-RP2 on the invasive ability of melanoma cell lines were reversed by SKL2001 (C). […]
(§2) (A) TUNEL analysis of apoptosis was conducted on orthotopic xenografts tumor sections using fluorescence staining. […] (B) Fluorescence staining of Ki67 was carried out on orthotopic xenograft tumor sections.
(§3) The power field scale bar, 100 μm. (C) Serum His-CY12-RP2 levels of the orthotopic xenografts mice treated by various dosage of CY12-RP2 were measured by His-ELISA kit. […]
(§4) kit. (E) Serum ALT, AST, TG, and γ-GT levels of the orthotopic xenografts model were measured by ELISA. […]

[3] = system: melanoma cells; assay: Wound healing with SKL2001, melanoma cell lines; type: cell-based; settings: combined with CY12-RP2
Description: A375 GFP, A875 GFP, A375 PDPN^−/−, and A875 PDPN^+/+ cells were all seeded in 12-well plates at a density of 5 × 10^5 cells/well. When the cells reached 100% confluence the next day, the straight wound was scraped in each cultured well with a 20 µL pipette tip. Then the cells were washed repeatedly with complete DMEM to remove the cellular debris, and the medium was changed to a low serum medium containing 0.05% FBS. The scratch-treated cells were subsequently cultured for an additional indicated time and imaged at 0 h, 12 h, 24 h and 48 h. Quantification of wound closure was accomplished by measuring the distance between the phase contrast images’ anterior edges of the contralateral surfaces using ImageJ software. As for peptide (CY12-RP2) function experiments, images of phase contrast for A375 GFP and A875 GFP cells were captured at 0 h before peptide administration. […]
as §2, §3, §4

[4] = system: melanoma cells; assay: Transwell invasion with SKL2001, melanoma cell lines; type: cell-based; settings: combined with CY12-RP2
Description: For invasion assay, matrigel (Corning, New York, USA) was coated on the upper surface of the upper chamber. The upper chamber was filled with DMEM medium containing 2% FBS, while the lower chamber contained a medium supplemented with 20% FBS. In brief, melanoma cells (A375 GFP, A875 GFP, A375 PDPN^−/−, and A875 PDPN^+/+ cells) were seeded in the upper chamber of the transwell plate (Corning, New York, USA) at about 5 × 10^4 cells/well with the medium as described above. For peptide functionality experiments, A375 and A875 cells were seeded in the upper chamber of the transwell plate at a density of 5 × 10^4 cells/well with various peptide concentrations (0 μM, 5 μM, 25 μM). Transwell inserts were fixed using 4% paraformaldehyde after 48 h cell invasion, and crystalline violet was used for staining. The quantities of invading cells were quantified using ImageJ software (NIH). […]
as §2, §3, §4

[5] = system: A375 PDPN knockdown cells; assay: Wound healing, PDPN-knockdown A375 cells; type: cell-based; settings: A375 with PDPN knockdown
Description: (§5) A375 GFP, A875 GFP, A375 PDPN^−/−, and A875 PDPN^+/+ cells were all seeded in 12-well plates at a density of 5 × 10^5 cells/well. When the cells reached 100% confluence the next day, the straight wound was scraped in each cultured well with a 20 µL pipette tip. Then the cells were washed repeatedly with complete DMEM to remove the cellular debris, and the medium was changed to a low serum medium containing 0.05% FBS. The scratch-treated cells were subsequently cultured for an additional indicated time and imaged at 0 h, 12 h, 24 h and 48 h. Quantification of wound closure was accomplished by measuring the distance between the phase contrast images’ anterior edges of the contralateral surfaces using ImageJ software. As for peptide (CY12-RP2) function experiments, images of phase contrast for A375 GFP and A875 GFP cells were captured at 0 h before peptide administration. The cells were then treated with CY12-RP2 (0 μM, 5 μM, 25 μM) for 24 h or 48 h, and then images were acquired again. Handling of the experimental results were carried out as previously described.
(§6) To confirm whether PDPN could affect migration and invasion of melanoma cells in wnt/β-catenin signaling pathway-dependent manner, A375 cells with PDPN knockdown were treated with a Wnt/β-catenin signaling pathway agonist (SKL2001) and PDPN overexpression A875 cells were treated with an inhibitor (IWR1). […]

[6] = system: A375 PDPN knockdown cells; assay: Transwell, PDPN-knockdown A375 cells; type: cell-based; settings: A375 with PDPN knockdown
Description: (§7) For invasion assay, matrigel (Corning, New York, USA) was coated on the upper surface of the upper chamber. The upper chamber was filled with DMEM medium containing 2% FBS, while the lower chamber contained a medium supplemented with 20% FBS. In brief, melanoma cells (A375 GFP, A875 GFP, A375 PDPN^−/−, and A875 PDPN^+/+ cells) were seeded in the upper chamber of the transwell plate (Corning, New York, USA) at about 5 × 10^4 cells/well with the medium as described above. For peptide functionality experiments, A375 and A875 cells were seeded in the upper chamber of the transwell plate at a density of 5 × 10^4 cells/well with various peptide concentrations (0 μM, 5 μM, 25 μM). Transwell inserts were fixed using 4% paraformaldehyde after 48 h cell invasion, and crystalline violet was used for staining. The quantities of invading cells were quantified using ImageJ software (NIH).
as §6

[7] = system: EMT proteins in A375 LV-shPDPN cells; assay: Western blot EMT proteins, PDPN-knockdown A375 cells; type: cell-based
Description: as §1
(§8) To confirm whether PDPN could affect migration and invasion of melanoma cells in wnt/β-catenin signaling pathway-dependent manner, A375 cells with PDPN knockdown were treated with a Wnt/β-catenin signaling pathway agonist (SKL2001) and PDPN overexpression A875 cells were treated with an inhibitor (IWR1). […] Furthermore, the levels of EMT positively correlated proteins, including N-cadherin, vimentin and snail were all suppressed, while E-cadherin was increased in A375 cells transfected with LV-shPDPN, and these phenomena were reversed following treatment with SKL2001 (Fig. S2E). In contrast, in the A875 cells, the activation of EMT by PDPN overexpression was blocked by IWR1 (Fig. S2E).

[8] = system: A875 PDPN overexpression cells; assay: Wound healing, PDPN-overexpressing A875 cells; type: cell-based; settings: A875 with PDPN overexpression
Description: as §5, §6

[9] = system: A875 PDPN overexpression cells; assay: Transwell, PDPN-overexpressing A875 cells; type: cell-based; settings: A875 with PDPN overexpression
Description: as §7, §6

[10] = system: EMT in A875 PDPN overexpression cells; assay: Western blot EMT proteins, PDPN-overexpressing A875 cells; type: cell-based
Description: as §1, §8

## [-CSSRTMHHC-] [peptide screened by C7C phage display library]
[1]
  melanoma growth and invasion: suppress melanoma growth and invasion both in vitro and in vivo

## O=C(NCCCn1ccnc1)c1cc(-c2ccco2)on1 [SKL2001]
[2]
  effect of SKL2001 on CY12-RP2 inhibition of EMT and Wnt/β-catenin signaling: significantly reversed
[3]
  effect of SKL2001 on CY12-RP2 inhibition of migration: significantly reversed
[4]
  effect of SKL2001 on CY12-RP2 inhibition of invasion: significantly reversed
[5]
  inhibition of migration by PDPN knockdown: abolished
[6]
  decrease of invasion mediated by PDPN knockdown: abrogated
[7]
  changes of N-cadherin, vimentin, snail and E-cadherin by LV-shPDPN: reversed

## O=C(Nc1cccc2cccnc12)c1ccc(N2C(=O)[C@@H]3[C@H](C2=O)[C@@H]2C=C[C@H]3C2)cc1 [IWR1]
[8]
  promotion of migration by PDPN overexpression: inhibited
[9]
  increase of invasion mediated by PDPN overexpression: abrogated
[10]
  activation of EMT by PDPN overexpression: blocked
